In ChEMBL document CHEMBL1134146, “Development of specific CXCR4 inhibitors possessing high selectivity indexes as well as complete stability in serum based on an anti-HIV peptide T140” (Bioorg Med Chem Lett, 2001):

Tests used:
[1] = Selectivity index determined for CC50 (test II) to EC50 x 10e3; type: functional
[2] = Selectivity index determined for CC50 (test I) to EC50 x 10e3; type: functional
MT4 [3] = experiment: Cytotoxic concentration of compound required to reduce the viability of mock infected MT-4 cells on the MTT assay by testI; type: functional; conditions: Homo sapiens
PBMC (Homo sapiens) = experiment: Cytotoxic concentration of compound determined by the […] exclusion staining method in PBMC by test II
[4] = Selectivity index determined for CC50 (test II) / EC50 x 10e3; type: functional
[5] = Selectivity index determined for CC50 (test I) / EC50 x 10e3; type: functional
[6] = system: Human immunodeficiency virus 1; experiment: Effective concentration for 50% protection of HIV-induced cytopathogenicity in MT-4 cells on the MTT assay (ZIDOVUDINE control); type: functional, organism-based; conditions: Human immunodeficiency virus 1, MT4
MT4 [7] = experiment: Cytotoxic concentration of compound required to reduce the viability of mock infected MT-4 cells on the MTT assay in test I; type: functional; conditions: Homo sapiens

Row | SMILES | SI [1] | SI [2] | also measured
1 | NCCCC[C@@H]1NC(=O)[C@@H](CCCCN)NC(=O)[C@H](CCCNC(N)=O)NC(=O)[C@@H](Cc2ccc(O)cc2)NC(=O)[C@H](NC(=O)[C@@H](NC(=O)[C@H](CCCN=C(N)N)NC(=O)[C@@H](N)CCCNC(N)=O)c2ccc3ccccc3c2)CSSC[C@H](C(=O)N[C@@H](CCCN=C(N)N)C(=O)O)NC(=O)[C@H](CCCNC(N)=O)NC(=O)[C@H](CCCN=C(N)N)NC(=O)[C@H](Cc2ccc(O)cc2)NC(=O)[C@H]2CCCN2C1=O | 22 | > 2.7 | 
2 | NCCCC[C@@H]1NC(=O)[C@H](CCCN=C(N)N)NC(=O)[C@H](Cc2ccc(O)cc2)NC(=O)[C@@H](NC(=O)[C@@H](NC(=O)[C@H](CCCN=C(N)N)NC(=O)[C@@H](N)CCCN=C(N)N)c2ccc3ccccc3c2)CSSC[C@@H](C(=O)N[C@@H](CCCN=C(N)N)C(=O)O)NC(=O)[C@H](CCCNC(N)=O)NC(=O)[C@H](CCCN=C(N)N)NC(=O)[C@H](Cc2ccc(O)cc2)NC(=O)[C@@H]2CCCN2C(=O)[C@@H](CCCCN)NC1=O |  |  | CC50 (MT4 [3]): > 1 µM; CC50 (PBMC (Homo sapiens)): 59 µM
3 | NCCCC[C@H]1NC(=O)[C@H](CCCN=C(N)N)NC(=O)[C@@H](Cc2ccc(O)cc2)NC(=O)[C@H](NC(=O)[C@@H](NC(=O)[C@H](CCCN=C(N)N)NC(=O)[C@@H](N)CCCNC(N)=O)c2ccc3ccccc3c2)CSSC[C@H](C(=O)N[C@@H](CCCN=C(N)N)C(=O)O)NC(=O)[C@H](CCCNC(N)=O)NC(=O)[C@H](CCCN=C(N)N)NC(=O)[C@H](Cc2ccc(O)cc2)NC(=O)[C@H]2CCCN2C(=O)[C@H](CCCNC(N)=O)NC1=O | > 22 | > 2.8 | 
4 | NCCCC[C@@H]1NC(=O)[C@@H](CCCCN)NC(=O)[C@H](CCCN=C(N)N)NC(=O)[C@@H](Cc2ccc(O)cc2)NC(=O)[C@H](NC(=O)[C@@H](NC(=O)[C@H](CCCN=C(N)N)NC(=O)[C@@H](N)CCCNC(N)=O)c2ccc3ccccc3c2)CSSC[C@H](C(=O)N[C@@H](CCCN=C(N)N)C(N)=O)NC(=O)[C@H](CCCNC(N)=O)NC(=O)[C@H](CCCNC(N)=O)NC(=O)[C@H](Cc2ccc(O)cc2)NC(=O)[C@H]2CCCN2C1=O | 12 | > 2.5 | 
5 | NCCCC[C@@H]1NC(=O)[C@@H](CCCCN)NC(=O)[C@H](CCCNC(N)=O)NC(=O)[C@@H](Cc2ccc(O)cc2)NC(=O)[C@H](NC(=O)[C@@H](NC(=O)[C@H](CCCN=C(N)N)NC(=O)[C@@H](N)CCCNC(N)=O)c2ccc3ccccc3c2)CSSC[C@H](C(=O)N[C@@H](CCCN=C(N)N)C(N)=O)NC(=O)[C@H](CCCNC(N)=O)NC(=O)[C@H](CCCN=C(N)N)NC(=O)[C@H](Cc2ccc(O)cc2)NC(=O)[C@H]2CCCN2C1=O | 53 | > 15 | 
6 | NCCCC[C@H]1NC(=O)[C@H](CCCN=C(N)N)NC(=O)[C@@H](Cc2ccc(O)cc2)NC(=O)[C@H](NC(=O)[C@@H](NC(=O)[C@H](CCCN=C(N)N)NC(=O)[C@@H](N)CCCN=C(N)N)c2ccc3ccccc3c2)CSSC[C@H](C(=O)N[C@@H](CCCN=C(N)N)C(=O)O)NC(=O)[C@H](CCCNC(N)=O)NC(=O)[C@H](CCCN=C(N)N)NC(=O)[C@H](Cc2ccc(O)cc2)NC(=O)[C@H]2CCCN2C(=O)[C@H](CCCNC(N)=O)NC1=O | 28 | > 20 | 
7 | NCCCC[C@@H]1NC(=O)[C@@H](CCCCN)NC(=O)[C@H](CCCNC(N)=O)NC(=O)[C@@H](Cc2ccc(O)cc2)NC(=O)[C@H](NC(=O)[C@@H](NC(=O)[C@H](CCCN=C(N)N)NC(=O)[C@@H](N)CCCN=C(N)N)c2ccc3ccccc3c2)CSSC[C@H](C(=O)N[C@@H](CCCN=C(N)N)C(N)=O)NC(=O)[C@H](CCCNC(N)=O)NC(=O)[C@H](CCCN=C(N)N)NC(=O)[C@H](Cc2ccc(O)cc2)NC(=O)[C@H]2CCCN2C1=O | 680 | > 170 | 
8 | NCCCC[C@@H]1NC(=O)[C@@H](CCCCN)NC(=O)[C@H](CCCN=C(N)N)NC(=O)[C@@H](Cc2ccc(O)cc2)NC(=O)[C@H](NC(=O)[C@@H](NC(=O)[C@H](CCCN=C(N)N)NC(=O)[C@@H](N)CCCN=C(N)N)c2ccc3ccccc3c2)CSSC[C@H](C(=O)N[C@@H](CCCN=C(N)N)C(=O)O)NC(=O)[C@H](CCCNC(N)=O)NC(=O)[C@H](CCCN=C(N)N)NC(=O)[C@H](Cc2ccc(O)cc2)NC(=O)[C@H]2CCCN2C1=O |  |  | SI [4]: 18; SI [5]: > 0.3
9 | NCCCC[C@H]1NC(=O)[C@H](CCCN=C(N)N)NC(=O)[C@@H](Cc2ccc(O)cc2)NC(=O)[C@H](NC(=O)[C@@H](NC(=O)[C@H](CCCN=C(N)N)NC(=O)[C@@H](N)CCCNC(N)=O)c2ccc3ccccc3c2)CSSC[C@H](C(=O)N[C@@H](CCCN=C(N)N)C(N)=O)NC(=O)[C@H](CCCNC(N)=O)NC(=O)[C@H](CCCN=C(N)N)NC(=O)[C@H](Cc2ccc(O)cc2)NC(=O)[C@H]2CCCN2C(=O)[C@H](CCCNC(N)=O)NC1=O | 420 | > 83 | 
10 | NCCCC[C@@H]1NC(=O)[C@@H](CCCCN)NC(=O)[C@H](CCCN=C(N)N)NC(=O)[C@@H](Cc2ccc(O)cc2)NC(=O)[C@H](NC(=O)[C@@H](NC(=O)[C@H](CCCN=C(N)N)NC(=O)[C@@H](N)CCCNC(N)=O)c2ccc3ccccc3c2)CSSC[C@H](C(=O)N[C@@H](CCCN=C(N)N)C(=O)O)NC(=O)[C@H](CCCNC(N)=O)NC(=O)[C@H](CCCNC(N)=O)NC(=O)[C@H](Cc2ccc(O)cc2)NC(=O)[C@H]2CCCN2C1=O | > 12 | > 1.5 | 
11 | NCCCC[C@@H]1NC(=O)[C@@H](CCCCN)NC(=O)[C@H](CCCNC(N)=O)NC(=O)[C@@H](Cc2ccc(O)cc2)NC(=O)[C@H](NC(=O)[C@@H](NC(=O)[C@H](CCCN=C(N)N)NC(=O)[C@@H](N)CCCN=C(N)N)c2ccc3ccccc3c2)CSSC[C@H](C(=O)N[C@@H](CCCN=C(N)N)C(=O)O)NC(=O)[C@H](CCCNC(N)=O)NC(=O)[C@H](CCCNC(N)=O)NC(=O)[C@H](Cc2ccc(O)cc2)NC(=O)[C@H]2CCCN2C1=O | > 90 | > 11 | 
12 | NCCCC[C@H]1NC(=O)[C@H](CCCN=C(N)N)NC(=O)[C@@H](Cc2ccc(O)cc2)NC(=O)[C@H](NC(=O)[C@@H](NC(=O)[C@H](CCCN=C(N)N)NC(=O)[C@@H](N)CCCN=C(N)N)c2ccc3ccccc3c2)CSSC[C@H](C(=O)N[C@@H](CCCN=C(N)N)C(N)=O)NC(=O)[C@H](CCCNC(N)=O)NC(=O)[C@H](CCCN=C(N)N)NC(=O)[C@H](Cc2ccc(O)cc2)NC(=O)[C@H]2CCCN2C(=O)[C@H](CCCNC(N)=O)NC1=O | 21 | > 22 | 
13 | NCCCC[C@H]1NC(=O)[C@H](CCCNC(N)=O)NC(=O)[C@@H](Cc2ccc(O)cc2)NC(=O)[C@H](NC(=O)[C@@H](NC(=O)[C@H](CCCN=C(N)N)NC(=O)[C@@H](N)CCCN=C(N)N)c2ccc3ccccc3c2)CSSC[C@H](C(=O)N[C@@H](CCCN=C(N)N)C(N)=O)NC(=O)[C@H](CCCNC(N)=O)NC(=O)[C@H](CCCN=C(N)N)NC(=O)[C@H](Cc2ccc(O)cc2)NC(=O)[C@H]2CCCN2C(=O)[C@H](CCCNC(N)=O)NC1=O | > 2000 | > 250 | 
14 | NCCCC[C@@H]1NC(=O)[C@@H](CCCCN)NC(=O)[C@H](CCCNC(N)=O)NC(=O)[C@@H](Cc2ccc(O)cc2)NC(=O)[C@H](NC(=O)[C@@H](NC(=O)[C@H](CCCN=C(N)N)NC(=O)[C@@H](N)CCCN=C(N)N)c2ccc3ccccc3c2)CSSC[C@H](C(=O)N[C@@H](CCCN=C(N)N)C(=O)O)NC(=O)[C@H](CCCNC(N)=O)NC(=O)[C@H](CCCN=C(N)N)NC(=O)[C@H](Cc2ccc(O)cc2)NC(=O)[C@H]2CCCN2C1=O | 180 | > 29 | 
15 | Cc1cn([C@H]2C[C@H](N=[N+]=[N-])[C@@H](CO)O2)c(=O)[nH]c1=O [ZIDOVUDINE] |  | 1.5 | EC50 [6]: 0.0079 µM; CC50 (MT4 [7]): 12 µM
16 | NCCCC[C@@H]1NC(=O)[C@@H](CCCCN)NC(=O)[C@H](CCCNC(N)=O)NC(=O)[C@@H](Cc2ccc(O)cc2)NC(=O)[C@H](NC(=O)[C@@H](NC(=O)[C@H](CCCN=C(N)N)NC(=O)[C@@H](N)CCCN=C(N)N)c2ccc3ccccc3c2)CSSC[C@H](C(=O)N[C@@H](CCCN=C(N)N)C(N)=O)NC(=O)[C@H](CCCNC(N)=O)NC(=O)[C@H](CCCNC(N)=O)NC(=O)[C@H](Cc2ccc(O)cc2)NC(=O)[C@H]2CCCN2C1=O | > 59 | > 15 | 
17 | NCCCC[C@H]1NC(=O)[C@H](CCCN=C(N)N)NC(=O)[C@@H](Cc2ccc(O)cc2)NC(=O)[C@H](NC(=O)[C@@H](NC(=O)[C@H](CCCN=C(N)N)NC(=O)[C@@H](N)CCCN=C(N)N)c2ccc3ccccc3c2)CSSC[C@H](C(=O)N[C@@H](CCCN=C(N)N)C(N)=O)NC(=O)[C@H](CCCNC(N)=O)NC(=O)[C@H](CCCNC(N)=O)NC(=O)[C@H](Cc2ccc(O)cc2)NC(=O)[C@H]2CCCN2C(=O)[C@H](CCCNC(N)=O)NC1=O | 250 | > 37 | 
18 | NCCCC[C@H]1NC(=O)[C@H](CCCN=C(N)N)NC(=O)[C@@H](Cc2ccc(O)cc2)NC(=O)[C@H](NC(=O)[C@@H](NC(=O)[C@H](CCCN=C(N)N)NC(=O)[C@@H](N)CCCN=C(N)N)c2ccc3ccccc3c2)CSSC[C@H](C(=O)N[C@@H](CCCN=C(N)N)C(=O)O)NC(=O)[C@H](CCCNC(N)=O)NC(=O)[C@H](CCCNC(N)=O)NC(=O)[C@H](Cc2ccc(O)cc2)NC(=O)[C@H]2CCCN2C(=O)[C@H](CCCNC(N)=O)NC1=O | > 100 | > 13 | 
